Our source for the EC50 values is US10562869B2, “Oxadiazole compounds” (REMYND NV, priority 2014, dated 2020).

In one assay the test system is INS-1E cells. As to the kind of experiment: Cytokine-induced caspase-3/7 activation in INS-1E cells (beta cell stress/apoptosis model, Caspase-Glo 3/7). Type of assay: cell-based. To be noted: Rattus norvegicus, cytokine mix (IFN-γ, IL-1β, TNF-α), 24 hours, caspase 3/7 activity, read-out: CYT EC50. The text has this:
The INS-1E cell line, a rat insulinoma cell line, has been characterized extensively. INS-1E cells respond to glucose by secreting insulin and, unlike most other immortalized β-cell lines, they do this in a consistent manner over time. The cells are sensitive to hyperglycemia-, free fatty acid (FFA)-, and cytokine-induced stress. Prolonged stress ultimately leads to induction of apoptotic pathways and, if stress is not counter-acted, to apoptosis. Caspase-3 and -7 play a central role downstream where various apoptotic pathways merge. As such, activation (i.e. cleavage) of these caspases forms a relevant primary read-out to evaluate protective activity of compounds against stress-induced apoptosis.
To evaluate the efficacy of different compounds to prevent induction of apoptosis, an in vitro screen was developed in which INS-1E cells were exposed to a cytokine mix (IFN-γ, 5 ng/ml; IL-1β, 20 pg/ml; TNF-α, 0.25 ng/ml). The degree of induction of apoptosis was evaluated using a substrate for cleaved caspase-3 and -7, i.e. a proluminescent caspase-3/7 DEVD aminoluciferin substrate with a thermostable luciferase (Caspase-Glo® 3/7 assay; Promega, cat. G8092).
On day 0, INS-1E cells were plated in a white-walled 96-well microplate (Greiner, cat. 655098) at 20,000 cells per well in 100 μl complete medium (RPMI containing 11 mM glucose supplemented with 5% FCS, 100 IU/ml penicillin, 100 μg/ml streptomycin, 10 mM HEPES, 1 mM Sodium Pyruvate and 50 μM 2-Mercapto-ethanol). On day 2, 100 μl medium containing cytokines and compound dissolved in DMSO was added to the cells. Wells without cytokines containing DMSO and wells with cytokines and DMSO were included to evaluate the degree of caspase 3/7 activation by the cytokine mix. After 24 hours exposure to cytokines and/or compound, Caspase-Glo® 3/7 reagent was added to the cells and caspase activity was determined by measuring luminescence.
To evaluate compound efficacy, the “toxicity window” was calculated by subtracting caspase activity of wells without stressor from activity of wells with stressor but without compound. The amount of caspase activity in the latter wells was normalized to 1 and used as reference. Subsequently, caspase activity in the wells with stressor and varying concentrations of compound was calculated relative to the wells without compound. Plotting caspase activity vs the log 10 of the concentration of compound permitted calculation of the EC50 values for the compounds which typically lied between 0.0001 and 10 μM. Compounds with an EC50<10 μM were considered active.

A further assay has as its system M17_3SYN cells. Briefly: Paraquat-induced cytotoxicity (LDH) in α-synuclein over-expressing M17_3SYN neuroblastoma cells. In kind it is cell-based, human. As to conditions: Homo sapiens, Neuroblastoma cell, 48 h, toxicity inhibition (LDH) in M17_3SYN cells challenged with 6 mM paraquat, 2 days; read-out: SYN EC50. The essentials:
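Human BE-M17 neuroblastoma cells stably overexpressing wild-type α-synuclein challenged with paraquat (final 6 mM) for 2 days at 37 °C alongside compounds over a concentration range. Cytotoxicity as LDH released relative to total LDH; EC50 from dose-dependent inhibition curve.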

The subject of a further assay is M17_3TAU(P301L) cells. Briefly: Retinoic acid-induced cytotoxicity (LDH) in TAU-P301L expressing M17_3TAU(P301L) neuroblastoma cells. In kind it is cell-based. To be noted: Homo sapiens, Neuroblastoma cell, 168 h; toxicity inhibition (LDH) in M17_3TAU(P301L) cells challenged with retinoic acid, 7 days. The essentials: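 Cells in 1% FCS medium challenged with RA (3.75 μM added in equal volume of serum-free medium) plus compound for 7 days at 37 °C. Cytotoxicity read as released LDH relative to total LDH; EC50 from dose-dependent reduction in toxicity.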

For `CSc1ccc(S(=O)(=O)N2CCN(c3nc(C(C)(C)c4ccc(F)cc4)no3)CC2)cc1` [Cmpd116, 1-{3-[1-(4-Fluoro-phenyl)-1-methyl-ethyl]-[1,2,4]oxadiazol-5-yl}-4-(4-methylsulfanyl-benzenesulfonyl)-piperazine], the EC50 was determined as 0.026 µM in the assay on INS-1E cells and 0.007 µM with M17_3SYN cells.

Consider `CSc1ccc(S(=O)(=O)N2CCC3(CC2)CN(c2nc(CC(F)(F)F)no2)C3)cc1` [Cmpd215, 5-(7-((4-(Methylthio)phenyl)sulfonyl)-2,7-diazaspiro[3.5]nonan-2-yl)-3-(2,2,2-trifluoroethyl)-1,2,4-oxadiazole], for which the EC50 came to 0.145 µM in the assay with INS-1E cells and 0.274 µM with M17_3SYN cells.

Turning to `COc1ccc(S(=O)(=O)N2CCN(c3nc(C(F)(F)c4ccc(F)cc4)no3)CC2)cc1` [Cmpd146, 1-{3-[Difluoro-(4-fluoro-phenyl)-methyl]-[1,2,4]oxadiazol-5-yl}-4-(4-methoxy-benzenesulfonyl)-piperazine], the EC50 in the assay on INS-1E cells is 0.075 µM; in the assay on M17_3SYN cells, 0.008 µM.

Consider `CCOc1ccc(S(=O)(=O)N2CCN(c3nc(C4(c5cccc(Cl)c5)CC4)no3)CC2)cc1` [Cmpd135, 1-{3-[1-(3-Chloro-phenyl)-cyclopropyl]-[1,2,4]oxadiazol-5-yl}-4-(4-ethoxy-benzenesulfonyl)-piperazine], for which the figures for the EC50 in the assay on INS-1E cells and with M17_3SYN cells were 0.129 µM and 0.028 µM, respectively.

As for `CSc1ccc(S(=O)(=O)N2CCN(c3nc(C4(c5ccc(Cl)cc5)CC4)no3)CC2)cc1` [Cmpd141, 1-{3-[1-(4-Chloro-phenyl)-cyclopropyl]-[1,2,4]oxadiazol-5-yl}-4-(4-methylsulfanyl-benzenesulfonyl)-piperazine], the figures for the EC50 in the assay on INS-1E cells and with M17_3SYN cells were 0.019 µM and 0.012 µM, respectively.

Take `CSc1ccc(S(=O)(=O)N2CCN(c3nc(C(F)(F)c4ccccc4)no3)CC2)cc1` [Cmpd157, 1-[3-(Difluoro-phenyl-methyl)-[1,2,4]oxadiazol-5-yl]-4-(4-methylsulfanyl-benzenesulfonyl)-piperazine]: the figures for the concentration giving a half-maximal response (EC50) with INS-1E cells and with M17_3SYN cells were 0.498 µM and 0.004 µM, respectively.

Take `CSc1ccc(S(=O)(=O)N2CCN(c3nc(C(F)(F)c4ccc(F)cc4)no3)CC2)cc1` [Cmpd151, 1-{3-[Difluoro-(4-fluoro-phenyl)-methyl]-[1,2,4]oxadiazol-5-yl}-4-(4-methylsulfanyl-benzenesulfonyl)-piperazine]: the EC50 is 0.041 µM in the assay with INS-1E cells and 0.013 µM in the assay with M17_3SYN cells.

Take `CCOc1ccc(S(=O)(=O)N2CCN(c3nc(C4(c5ccccc5)CC4)no3)CC2)cc1` [Cmpd121, 1-(4-Ethoxy-benzenesulfonyl)-4-[3-(1-phenyl-cyclopropyl)-[1,2,4]oxadiazol-5-yl]-piperazine]: the concentration giving a half-maximal response (EC50) in the assay on INS-1E cells stood at 0.186 µM; with M17_3SYN cells, 0.01 µM.

On to `COc1cccc(CCN2CCN(c3nc(C(C)(C)c4ccc(F)cc4)no3)CC2)c1` [Cmpd118, 3-(2-(4-Fluorophenyl)propan-2-yl)-5-(4-(3-methoxyphenethyl)piperazin-1-yl)-1,2,4-oxadiazole], for which the EC50 in the assay on M17_3TAU(P301L) cells was 0.105 µM.

Turning to `Fc1cccc(-c2noc(N3CCN(CCc4ccc(Cl)cc4)CC3)n2)c1` [Cmpd031, 5-(4-(4-Chlorophenethyl)piperazin-1-yl)-3-(3-fluorophenyl)-1,2,4-oxadiazole], the EC50 in the assay with M17_3TAU(P301L) cells was determined as 0.031 µM.

Turning to `Clc1ccc(-c2noc(N3CCN(CCc4ccccc4)CC3)n2)cc1` [Cmpd020, 3-(4-Chlorophenyl)-5-(4-phenethylpiperazin-1-yl)-1,2,4-oxadiazole], the midpoint of the response with M17_3TAU(P301L) cells, the EC50, lay at 0.01 µM.

In the assay on M17_3TAU(P301L) cells, `Clc1ccccc1CN1CCN(c2nc(-c3ccccc3)no2)CC1` [Cmpd001, 5-(4-(2-Chlorobenzyl)piperazin-1-yl)-3-phenyl-1,2,4-oxadiazole] registered an EC50 of 0.027 µM.

As to `Clc1ccccc1CN1CCN(c2nc(C3C[C@@H]4CC[C@H]3C4)no2)CC1` (stereo partly drawn) [Cmpd184, 3-((1S,4R)-bicyclo[2.2.1]heptan-2-yl)-5-(4-(2-chlorobenzyl)piperazin-1-yl)-1,2,4-oxadiazole], the EC50 with M17_3TAU(P301L) cells was found to be 0.135 µM.

For the molecule `COc1cc(CCN2CCN(c3nc(-c4ccc(Cl)cc4)no3)CC2)ccn1` [Cmpd023, 3-(4-Chlorophenyl)-5-(4-(2-(2-methoxypyridin-4-yl)ethyl)piperazin-1-yl)-1,2,4-oxadiazole], the EC50 in the assay on M17_3TAU(P301L) cells is 0.018 µM.

For `CC(C)CCN1CCN(c2nc(C3(c4ccccc4)CC3)no2)CC1` [Cmpd133, 5-(4-Isopentylpiperazin-1-yl)-3-(1-phenylcyclopropyl)-1,2,4-oxadiazole], in the assay on M17_3TAU(P301L) cells, a half-maximal effect (EC50) was put at 0.03 µM.

Regarding `Cc1cccc(CN2CCN(c3nc(Cc4cccc(F)c4)no3)CC2)c1` [Cmpd089, 1-[3-(3-Fluoro-benzyl)-[1,2,4]oxadiazol-5-yl]-4-(3-methyl-benzyl)-piperazine], in the assay with M17_3TAU(P301L) cells, the EC50 amounted to 0.485 µM.

`FC(F)(F)CCc1noc(N2CCN(Cc3ccccc3Cl)CC2)n1` [Cmpd177, 5-(4-(2-Chlorobenzyl)piperazin-1-yl)-3-(3,3,3-trifluoropropyl)-1,2,4-oxadiazole]: in the assay on M17_3TAU(P301L) cells, the EC50 amounted to 0.172 µM.

As to `Clc1cccc(-c2noc(N3CCN(Cc4ccccc4Cl)CC3)n2)c1` [Cmpd027, 5-(4-(2-Chlorobenzyl)piperazin-1-yl)-3-(3-chlorophenyl)-1,2,4-oxadiazole], the EC50 in the assay with M17_3TAU(P301L) cells amounted to 0.074 µM.

On to `Clc1ccc(CCN2CCN(c3nc(-c4cccc(Cl)c4)no3)CC2)cc1` [Cmpd024, 5-(4-(4-Chlorophenethyl)piperazin-1-yl)-3-(3-chlorophenyl)-1,2,4-oxadiazole], for which, in the assay on M17_3TAU(P301L) cells, a half-maximal effect (EC50) was put at 0.119 µM.

For the molecule `Clc1ccc(CCN2CCN(c3nc(C4C[C@@H]5CC[C@H]4C5)no3)CC2)cc1` (stereo partly drawn) [Cmpd186, 3-((1S,4R)-bicyclo[2.2.1]heptan-2-yl)-5-(4-(4-chlorophenethyl)piperazin-1-yl)-1,2,4-oxadiazole], the EC50 in the assay with M17_3TAU(P301L) cells was 0.017 µM.

`CCOCCN1CCN(c2nc(Cc3ccc(Cl)cc3)no2)CC1` [Cmpd065, 1-[3-(4-Chloro-benzyl)-[1,2,4]oxadiazol-5-yl]-4-(2-ethoxy-ethyl)-piperazine] returned an EC50 in the assay with M17_3TAU(P301L) cells of 0.763 µM.

Regarding `Cc1ccc(CN2CCN(c3nc(-c4cccc(F)c4)no3)CC2)cc1` [Cmpd030, 3-(3-Fluorophenyl)-5-(4-(4-methylbenzyl)piperazin-1-yl)-1,2,4-oxadiazole], the response with M17_3TAU(P301L) cells was half-maximal at 0.013 µM (EC50).

In the case of `COc1cccc(CCN2CCN(c3nc(C4(c5ccc(F)cc5)CC4)no3)CC2)c1` [Cmpd109, 3-(1-(4-Fluorophenyl)cyclopropyl)-5-(4-(3-methoxyphenethyl)piperazin-1-yl)-1,2,4-oxadiazole], a half-maximal effect in the assay on M17_3TAU(P301L) cells (EC50) was put at 0.487 µM.

In the assay on M17_3TAU(P301L) cells, `Cc1ccc(-c2noc(N3CCN(Cc4ccc(Cl)cc4)CC3)n2)cc1` [Cmpd008, 5-(4-(4-Chlorobenzyl)piperazin-1-yl)-3-(p-tolyl)-1,2,4-oxadiazole] displayed an EC50 of 0.182 µM.

`CCCN1CCN(c2nc(Cc3ccc(Cl)cc3)no2)CC1` [Cmpd066, 1-[3-(4-Chloro-benzyl)-[1,2,4]oxadiazol-5-yl]-4-propyl-piperazine]: the EC50 in the assay with M17_3TAU(P301L) cells was found to be 0.145 µM.

Molecule `COc1cccc(CCN2CCN(c3nc(Cc4ccc(Cl)cc4)no3)CC2)c1` [Cmpd056, 1-[3-(4-Chloro-benzyl)-[1,2,4]oxadiazol-5-yl]-4-[2-(3-methoxy-phenyl)-ethyl]-piperazine] had an EC50 with M17_3TAU(P301L) cells of 0.075 µM.

In the assay with M17_3TAU(P301L) cells, `CC(C)CCN1CCN(c2nc(CCC(F)(F)F)no2)CC1` [Cmpd179, 5-(4-Isopentylpiperazin-1-yl)-3-(3,3,3-trifluoropropyl)-1,2,4-oxadiazole] returned an EC50 of 0.046 µM.

`Cc1ccc(CN2CCN(c3nc(C4(c5ccccc5)CC4)no3)CC2)cc1` [Cmpd130, 5-(4-(4-Methylbenzyl)piperazin-1-yl)-3-(1-phenylcyclopropyl)-1,2,4-oxadiazole] yielded an EC50 with M17_3TAU(P301L) cells of 0.185 µM.

In the assay with M17_3TAU(P301L) cells, `COc1cccc(CCN2CCN(c3nc(Cc4ccc(F)c(F)c4)no3)CC2)c1` [Cmpd098, 1-[3-(3,4-Difluoro-benzyl)-[1,2,4]oxadiazol-5-yl]-4-[2-(3-methoxy-phenyl)-ethyl]-piperazine] had an EC50 of 0.003 µM.
